This is an account of results in patent US20230139171A1 (SITA Information Networking Computing UK Limited, priority 2019, published 2023).

One assay has as its target T1, human TLR7 (Homo sapiens, UniProt Q9NYK1).
T1 construct: host or cells: HEK-Blue cells
T1 sequence (Q9NYK1 27-1049): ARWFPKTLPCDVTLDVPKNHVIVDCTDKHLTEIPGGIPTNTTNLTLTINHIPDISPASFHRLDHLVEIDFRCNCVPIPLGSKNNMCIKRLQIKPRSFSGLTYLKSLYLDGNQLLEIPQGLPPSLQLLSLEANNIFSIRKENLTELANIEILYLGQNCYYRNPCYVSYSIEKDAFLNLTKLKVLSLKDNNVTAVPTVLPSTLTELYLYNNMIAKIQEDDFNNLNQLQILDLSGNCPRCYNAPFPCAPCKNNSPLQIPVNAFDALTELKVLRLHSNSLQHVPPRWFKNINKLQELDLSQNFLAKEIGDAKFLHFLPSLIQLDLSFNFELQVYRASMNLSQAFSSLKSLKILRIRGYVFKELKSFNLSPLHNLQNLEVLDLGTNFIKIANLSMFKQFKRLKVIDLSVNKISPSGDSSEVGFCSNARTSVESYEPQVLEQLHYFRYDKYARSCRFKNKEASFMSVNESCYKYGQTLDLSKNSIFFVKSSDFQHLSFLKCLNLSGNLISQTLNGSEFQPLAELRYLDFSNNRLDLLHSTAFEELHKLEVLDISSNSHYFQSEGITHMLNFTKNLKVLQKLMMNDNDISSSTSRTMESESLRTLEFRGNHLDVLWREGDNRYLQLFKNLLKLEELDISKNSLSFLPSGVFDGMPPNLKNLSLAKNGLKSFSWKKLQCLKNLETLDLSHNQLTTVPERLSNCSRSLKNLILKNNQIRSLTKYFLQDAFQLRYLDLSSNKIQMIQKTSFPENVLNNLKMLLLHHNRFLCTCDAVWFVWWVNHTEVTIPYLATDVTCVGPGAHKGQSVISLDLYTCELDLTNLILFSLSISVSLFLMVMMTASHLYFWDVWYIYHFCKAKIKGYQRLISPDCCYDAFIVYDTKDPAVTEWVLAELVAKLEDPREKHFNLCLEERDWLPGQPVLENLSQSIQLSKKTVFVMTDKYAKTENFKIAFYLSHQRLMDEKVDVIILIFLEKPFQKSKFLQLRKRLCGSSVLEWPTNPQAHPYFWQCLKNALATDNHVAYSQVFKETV
Description: TLR7 inhibition reporter assay (HEK-Blue cells, SEAP reporter, gardiquimod stimulation). Format: cell-based. The settings on record: gardiquimod 7.5 μM. The method in brief: (§1)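 Dose–response from 0.05 nM to 50 μM was run in HEK-Blue human TLR7, TLR8 and TLR9 reporter cells. After 30 min at room temperature with compound, ligand was added (TLR7 gardiquimod 7.5 μM; TLR8 R848 15.9 μM; TLR9 ODN2006 5 nM) and SEAP measured next day, at 22 h.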
On the technique in general: Reporter assays use an easily measured gene product as a stand-in for the process of interest.

A further assay concerns the target T2, human TLR8 (Homo sapiens, UniProt Q9NR97).
T2 construct: host or cells: HEK-Blue cells
T2 sequence (Q9NR97 27-1041): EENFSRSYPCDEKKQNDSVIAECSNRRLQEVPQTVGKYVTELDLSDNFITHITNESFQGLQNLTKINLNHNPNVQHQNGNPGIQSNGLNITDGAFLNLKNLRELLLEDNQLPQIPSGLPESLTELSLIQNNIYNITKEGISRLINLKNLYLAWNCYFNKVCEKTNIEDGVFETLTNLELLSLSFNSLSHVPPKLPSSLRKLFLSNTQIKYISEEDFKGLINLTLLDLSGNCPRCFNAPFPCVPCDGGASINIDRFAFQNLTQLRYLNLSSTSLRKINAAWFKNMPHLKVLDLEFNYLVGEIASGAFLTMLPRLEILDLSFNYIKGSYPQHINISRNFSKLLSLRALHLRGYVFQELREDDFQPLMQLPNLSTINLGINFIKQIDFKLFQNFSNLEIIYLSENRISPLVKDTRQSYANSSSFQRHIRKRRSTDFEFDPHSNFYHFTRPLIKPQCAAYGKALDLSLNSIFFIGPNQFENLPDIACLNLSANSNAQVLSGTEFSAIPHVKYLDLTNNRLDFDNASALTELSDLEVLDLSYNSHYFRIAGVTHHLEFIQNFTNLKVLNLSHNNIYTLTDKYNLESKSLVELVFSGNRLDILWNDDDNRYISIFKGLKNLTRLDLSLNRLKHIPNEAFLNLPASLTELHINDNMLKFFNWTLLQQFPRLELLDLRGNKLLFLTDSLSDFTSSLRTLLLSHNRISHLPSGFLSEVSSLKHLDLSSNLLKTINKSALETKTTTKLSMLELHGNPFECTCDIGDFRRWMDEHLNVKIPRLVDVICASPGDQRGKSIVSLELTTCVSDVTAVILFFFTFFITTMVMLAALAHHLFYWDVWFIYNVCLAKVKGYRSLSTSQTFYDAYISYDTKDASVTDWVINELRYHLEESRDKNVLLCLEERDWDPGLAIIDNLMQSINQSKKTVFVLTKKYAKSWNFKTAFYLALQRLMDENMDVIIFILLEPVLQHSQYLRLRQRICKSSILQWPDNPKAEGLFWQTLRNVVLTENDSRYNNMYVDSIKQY
Description: TLR8 inhibition reporter assay (HEK-Blue cells, SEAP reporter, R848 stimulation). The format is cell-based. The following applies: R848 15.9 μM. An outline of the steps:
as §1

[1] abbreviates: HEK-Blue cells overexpressing human TLR7, SEAP reporter, read-out: TLR7 IC50.
[2] abbreviates: HEK-Blue cells overexpressing human TLR8, SEAP reporter, read-out: TLR8 IC50.

Read-outs that look alike come from different tables or passages of the source.

For the compound `Cc1cc(-c2[nH]c3sc(C(=O)N4CCNC(=O)C4)nc3c2C(C)C)cn2ncnc12` [Example 392, 4-(6-isopropyl-5-(8-methyl-[1,2,4]triazolo[1,5-a]pyridin-6-yl)-4H-pyrrolo[3,2-d]thiazole-2-carbonyl)piperazin-2-one], the IC50 amounted to 241 nM on human TLR7 (setting [1]) and 404 nM on human TLR8 (setting [2]).
The matching figures for `Cc1cc(-c2[nH]c3sc(C(=O)N4CCCC4)nc3c2C(C)C)cn2ncnc12` [Example 393, (6-isopropyl-5-(8-methyl-[1,2,4]triazolo[1,5-a]pyridin-6-yl)-4H-pyrrolo[3,2-d]thiazol-2-yl)(pyrrolidin-1-yl) methanone]: 77.6 nM and 140 nM.
The corresponding values for `Cc1cc(-c2[nH]c3sc(C(=O)N4CCCOCC4)nc3c2C(C)C)cn2ncnc12` [Example 394, (6-isopropyl-5-(8-methyl-[1,2,4]triazolo[1,5-a]pyridin-6-yl)-4H-pyrrolo[3,2-d]thiazol-2-yl)(1,4-oxazepan-4-yl)methanone] are 154 nM and 529 nM.
The matching figures for `COC1CN(C(=O)c2nc3c(C(C)C)c(-c4cc(C)c5ncnn5c4)[nH]c3s2)C1` [Example 396, (6-isopropyl-5-(8-methyl-[1,2,4]triazolo[1,5-a]pyridin-6-yl)-4H-pyrrolo[3,2-d]thiazol-2-yl)(3-methoxyazetidin-1-yl)methanone]: 102 nM and 53.9 nM.
As for `Cc1cc(-c2[nH]c3sc(C(=O)NC4COC4)nc3c2C(C)C)cn2ncnc12` [Example 397, 6-isopropyl-5-(8-methyl-[1,2,4]triazolo[1,5-a]pyridin-6-yl)-N-(oxetan-3-yl)-4H-pyrrolo[3,2-d]thiazole-2-carboxamide], the IC50 on human TLR7 (setting [1]) worked out at 221 nM; on human TLR8 (setting [2]), 463 nM.
The corresponding values for `Cc1cc(-c2[nH]c3sc(C(=O)N4CCOCC4)nc3c2C(C)C)cn2ncnc12` [Example 398, (6-isopropyl-5-(8-methyl-[1,2,4]triazolo[1,5-a]pyridin-6-yl)-4H-pyrrolo[3,2-d]thiazol-2-yl)(morpholino)methanone] are 137 nM and 365 nM.
Turning to `Cc1cc(-c2[nH]c3sc(C(=O)NCC4(S(C)(=O)=O)CC4)nc3c2C(C)C)cn2ncnc12` [Example 399, 6-isopropyl-5-(8-methyl-[1,2,4]triazolo[1,5-a]pyridin-6-yl)-N-((1-(methylsulfonyl)cyclopropyl)methyl)-4H-pyrrolo[3,2-d]thiazole-2-carboxamide], the values for the IC50 at human TLR7 (setting [1]) and at human TLR8 (setting [2]) were 126 nM and 132 nM, respectively.
The corresponding values for `Cc1c(-c2[nH]c3sc(CNCC(N)=O)nc3c2C(C)C)cn2ncnc2c1C` [Example 402, 2-(((5-(7,8-dimethyl-[1,2,4]triazolo[1,5-a]pyridin-6-yl)-6-isopropyl-4H-pyrrolo[3,2-d]thiazol-2-yl)methyl)amino)acetamide] are 35.1 nM and 297 nM.
Take `Cc1c(-c2[nH]c3sc(CN4CC5(C4)CS(=O)(=O)C5)nc3c2C(C)C)cn2ncnc2c1C` [Example 403, 6-((5-(7,8-dimethyl-[1,2,4]triazolo[1,5-a]pyridin-6-yl)-6-isopropyl-4H-pyrrolo[3,2-d]thiazol-2-yl)methyl)-2-thia-6-azaspiro[3.3]heptane 2,2-dioxide]: the IC50 is 26.9 nM against human TLR7 (TLR7 IC50, HEK-Blue cells overexpressing human TLR7, SEAP reporter) and 156 nM against human TLR8 (TLR8 IC50, HEK-Blue cells overexpressing human TLR8, SEAP reporter).
As for `Cc1c(-c2[nH]c3sc(CN4CC5(CCOCC5)C4)nc3c2C(C)C)cn2ncnc2c1C` [Example 404, 2-((5-(7,8-dimethyl-[1,2,4]triazolo[1,5-a]pyridin-6-yl)-6-isopropyl-4H-pyrrolo[3,2-d]thiazol-2-yl)methyl)-7-oxa-2-azaspiro[3.5]nonane], the values for the IC50 on human TLR7 (setting [1]) and at human TLR8 (setting [2]) were 43.6 nM and 124 nM, respectively.
The matching figures for `Cc1c(-c2[nH]c3sc(CN4CCNC(=O)C4)nc3c2C(C)C)cn2ncnc2c1C` [Example 406, 4-((5-(7,8-dimethyl-[1,2,4]triazolo[1,5-a]pyridin-6-yl)-6-isopropyl-4H-pyrrolo[3,2-d]thiazol-2-yl)methyl) piperazin-2-one]: 2.74 nM and 142 nM.
Take `Cc1c(-c2[nH]c3sc(CN4CCOCC4)nc3c2C(C)C)cn2ncnc2c1C` [Example 407, 4-((5-(7,8-dimethyl-[1,2,4]triazolo[1,5-a]pyridin-6-yl)-6-isopropyl-4H-pyrrolo[3,2-d]thiazol-2-yl)methyl)morpholine]: the IC50 was 28.6 nM at human TLR7 (setting [1]) and 279 nM on human TLR8 (setting [2]).
The matching figures for `Cc1c(-c2[nH]c3sc(CN4CC5(COC5)C4)nc3c2C(C)C)cn2ncnc2c1C` [Example 408, 6-((5-(7,8-dimethyl-[1,2,4]triazolo[1,5-a]pyridin-6-yl)-6-isopropyl-4H-pyrrolo[3,2-d]thiazol-2-yl)methyl)-2-oxa-6-azaspiro[3.3]heptane]: 47.4 nM and 168 nM.

What is called IC50 is the concentration that gives 50% inhibition.
